Source: patent US20230045421A1 (priority 2018, published 2023)
Where two headings read alike, the source gives them in different places.

Tested on: HBV rcDNA
Test: HepDE19 assay with bDNA quantitation of HBV rcDNA
Assay type: cell-based, hepatitis B virus
Experimental: HepDE19 Assay with bDNA Quantitation of HBV rcDNA:
HepDE19 cell culture system is a HepG2 (human hepatocarcinoma) derived cell line that supports HBV DNA replication and cccDNA formation in a tetracycline (Tet)-regulated manner and produces HBV rcDNA and a detectable reporter molecule dependent on the production and maintenance of cccDNA (Guo, et al., 2007, J. Virol. 81:12472-12484).
HepDE19 (50,000 cells/well) were plated in 96-well collagen-coated tissue-culture treated microtiter plates in DMEM/F12 medium supplemented with 10% fetal bovine serum, 1% penicillin-streptomycin and 1 μg/mL tetracycline and incubated in a humidified incubator at 37° C. and 5% CO2 overnight. Next day, the cells were switched to fresh medium without tetracycline and incubated for 4 hours at 37° C. and 5% CO2. The cells were treated with fresh Tet-free medium with compounds at concentrations starting at 25 μM and a serial, […], 8-point, titration series in duplicate. The final DMSO concentration in the assay was 0.5%. The plates were incubated for 7 days in a humidified incubator at 37° C. and 5% CO2. Following a 7 day-incubation, the level of rcDNA present in the inhibitor-treated wells was measured using a Quantigene 2.0 bDNA assay kit (Affymetrix, Santa Clara, Calif.) with HBV specific custom probe set and manufacturers instructions. Concurrently, the effect of compounds on cell viability was assessed using replicate plates, plated at a density of 5,000 cells/well and incubated for 4 days, to determine the ATP content as a measure of cell viability using the cell-titer glo reagent (CTG; Promega Corporation, Madison, Wis.) as per manufacturer's instructions. The plates were read using a Victor luminescence plate reader (PerkinElmer Model 1420 Multilabel counter) and the relative luminescence units (RLU) data generated from each well was calculated as % inhibition of the untreated control wells and analyzed using XL-Fit module in Microsoft Excel to determine EC50 and EC90 (bDNA) and CC50 (CTG) values using a 4-parameter curve fitting algorithm.

[1] = Hepatitis B virus, HepDE19, HepDE19 assay, inhibition of formation of relaxed circular DNA (rcDNA), bDNA quantitation, read-out: DE-19bDNA EC50
[2] = Hepatitis B virus, HepDE19, HepDE19 assay, inhibition of formation of rcDNA, read-out: DE-19bDNA EC50
[3] = HepDE19 assay, inhibition of formation of rcDNA, read-out: DE-19bDNA EC50
[4] = read-out: DE-19bDNA EC50, HepDE19 assay, inhibition of formation of rcDNA

Compound	EC50 [3]	also measured
CC(C)CN(C(=O)Nc1ccc(F)cc1)C(C)c1cnc(-n2cncn2)c2ccccc12 (racemic) [Compound 301, 1-(1-(1-(1H-1,2,4-Triazol-1-yl)isoquinolin-4-yl)ethyl)-3-(4-fluorophenyl)-1-isobutylurea]		EC50 [1]: 0.051 µM
CC(c1cnc(-n2ccnn2)c2ccccc12)N(C)C(=O)Nc1ccc(F)c(Cl)c1 (racemic) [Compound 354, 1-(1-(1-(1H-1,2,3-triazol-1-yl)isoquinolin-4-yl)ethyl)-3-(3-chloro-4-fluorophenyl)-1-methylurea]		EC50 [1]: 0.13 µM
CC(C)CN(C(=O)Nc1ccc(F)c(Cl)c1)C(C)c1cnc(-n2ccnn2)c2ccccc12 (racemic) [Compound 355, 1-(1-(1-(1H-1,2,3-Triazol-1-yl)isoquinolin-4-yl)ethyl)-3-(3-chloro-4-fluorophenyl)-1-isobutylurea]		EC50 [1]: 0.018 µM
CC(c1c[nH]c(=O)c2c(F)c(F)ccc12)N(CCS(N)(=O)=O)C(=O)Nc1ccc(F)c(Cl)c1 (racemic) [Compound 393, 2-(3-(3-chloro-4-fluorophenyl)-1-(1-(7,8-difluoro-1-oxo-1,2-dihydroisoquinolin-4-yl)ethyl)ureido) ethane-1-sulfonamide]		EC50 [1]: 0.037 µM
CC(NC(=O)Nc1ccc(F)c(Cl)c1)c1c[nH]c(=O)c2ccccc12 (single isomer, unassigned) [Compound 10, 1-(3-Chloro-4-fluorophenyl)-3-(1-(1-oxo-1,2-dihydroisoquinolin-4-yl)ethyl)urea]		EC50 [2]: 3.4 µM
CC(NC(=O)Nc1ccc(F)c(Cl)c1)c1c[nH]c(=O)c2ccccc12 (single isomer, unassigned) [Compound 11, 1-(3-Chloro-4-fluorophenyl)-3-(1-(1-oxo-1,2-dihydroisoquinolin-4-yl)ethyl)urea]	4.7 µM	
CCN(C(=O)Nc1ccc(F)c(Cl)c1)C(C)c1cnc(OC)c2ccccc12 (single isomer, unassigned) [Compound 22, 3-(3-Chloro-4-fluorophenyl)-1-ethyl-1-(1-(1-methoxyisoquinolin-4-yl)ethyl)urea]	9.6 µM	
CCN(C(=O)Nc1ccc(F)c(Cl)c1)C(C)c1cnc(OC)c2ccccc12 (single isomer, unassigned) [Compound 23, 3-(3-Chloro-4-fluorophenyl)-1-ethyl-1-(1-(1-methoxyisoquinolin-4-yl)ethyl)urea]	0.27 µM	
CCN(C(=O)Nc1ccc(F)c(Cl)c1)C(C)c1c[nH]c(=O)c2ccccc12 (single isomer, unassigned) [Compound 24, 3-(3-Chloro-4-fluorophenyl)-1-ethyl-1-(1-(1-oxo-1,2-dihydroisoquinolin-4-yl)ethyl)urea]	3.2 µM	
CCN(C(=O)Nc1ccc(F)c(Cl)c1)C(C)c1c[nH]c(=O)c2ccccc12 (single isomer, unassigned) [Compound 25, 3-(3-Chloro-4-fluorophenyl)-1-ethyl-1-(1-(1-oxo-1,2-dihydroisoquinolin-4-yl)ethyl)urea]	0.02 µM	
COc1ncc(C(C)N(C)C(=O)Nc2ccc(F)c(Cl)c2)c2ccccc12 (single isomer, unassigned) [Compound 30, 3-(3-chloro-4-fluorophenyl)-1-(1-(1-methoxyisoquinolin-4-yl)ethyl)-1-methylurea]		EC50 [2]: 0.56 µM
CCC(c1cnc(OC)c2ccccc12)N(CC)C(=O)Nc1ccc(F)c(Cl)c1 (single isomer, unassigned) [Compound 36, 3-(3-Chloro-4-fluorophenyl)-1-ethyl-1-(1-(1-methoxyisoquinolin-4-yl)propyl)urea]	2.1 µM	
CCC(c1c[nH]c(=O)c2ccccc12)N(CC)C(=O)Nc1ccc(F)c(Cl)c1 (single isomer, unassigned) [Compound 37, 3-(3-chloro-4-fluorophenyl)-1-ethyl-1-(1-(1-oxo-1,2-dihydroisoquinolin-4-yl)propyl)urea]		EC50 [4]: 0.26 µM
CCC(c1cnc(OC)c2ccccc12)N(CC)C(=O)Nc1ccc(F)c(Cl)c1 (single isomer, unassigned) [Compound 38, 3-(3-Chloro-4-fluorophenyl)-1-ethyl-1-(1-(1-methoxyisoquinolin-4-yl)propyl)urea]	18 µM	
CCC(c1c[nH]c(=O)c2ccccc12)N(CC)C(=O)Nc1ccc(F)c(Cl)c1 (single isomer, unassigned) [Compound 39, 3-(3-Chloro-4-fluorophenyl)-1-ethyl-1-(1-(1-oxo-1,2-dihydroisoquinolin-4-yl)propyl)urea]		EC50 [4]: 14 µM
CCN(C(=O)Nc1ccc(F)c(Cl)c1)C(c1cnc(OC)c2ccccc12)C1CC1 (single isomer, unassigned) [Compound 40, 3-(3-Chloro-4-fluorophenyl)-1-(cyclopropyl(1-methoxyisoquinolin-4-yl)methyl)-1-ethylurea]	20 µM	
CCN(C(=O)Nc1ccc(F)c(Cl)c1)C(c1cnc(OC)c2ccccc12)C(C)C (single isomer, unassigned) [Compound 44, 3-(3-Chloro-4-fluorophenyl)-1-ethyl-1-(1-(1-methoxyisoquinolin-4-yl)-2-methylpropyl)urea]		EC50 [2]: 25 µM
CCN(C(=O)Nc1ccc(F)c(Cl)c1)C(c1cnc(OC)c2ccccc12)C(C)C (single isomer, unassigned) [Compound 45, 3-(3-Chloro-4-fluorophenyl)-1-ethyl-1-(1-(1-methoxyisoquinolin-4-yl)-2-methylpropyl)urea]	19 µM	
CCN(C(=O)Nc1ccc(F)c(Cl)c1)C(c1c[nH]c(=O)c2ccccc12)C1CC1 (single isomer, unassigned) [Compound 46, 3-(3-Chloro-4-fluorophenyl)-1-(cyclopropyl(1-oxo-1,2-dihydroisoquinolin-4-yl)methyl)-1-ethylurea]		EC50 [4]: 23 µM
CCN(C(=O)Nc1ccc(F)c(Cl)c1)C(c1c[nH]c(=O)c2ccccc12)C1CC1 (single isomer, unassigned) [Compound 49, 3-(3-Chloro-4-fluorophenyl)-1-(cyclopropyl(1-oxo-1,2-dihydroisoquinolin-4-yl)methyl)-1-ethylurea]		EC50 [4]: 0.5 µM
CCN(C(=O)Nc1ccc(F)c(Cl)c1)C(c1c[nH]c(=O)c2ccccc12)C(C)C (single isomer, unassigned) [Compound 54, 3-(3-Chloro-4-fluorophenyl)-1-ethyl-1-(2-methyl-1-(1-oxo-1,2-dihydroisoquinolin-4-yl)propyl)urea]		EC50 (Hepatitis B virus, HepDE19, read-out: DE-19bDNA EC50 (μM), HepDE19 assay, inhibition of formation of rcDNA): 20 µM
CCN(C(=O)Nc1ccc(F)c(Cl)c1)C(c1c[nH]c(=O)c2ccccc12)C(C)C (single isomer, unassigned) [Compound 55, 3-(3-Chloro-4-fluorophenyl)-1-ethyl-1-(2-methyl-1-(1-oxo-1,2-dihydroisoquinolin-4-yl)propyl)urea]		EC50 [4]: 11 µM
COc1ncc(C(C)N(C(=O)Nc2ccc(F)c(Cl)c2)C2CC2)c2ccccc12 (single isomer, unassigned) [Compound 56, 3-(3-Chloro-4-fluorophenyl)-1-cyclopropyl-1-(1-(1-methoxyisoquinolin-4-yl)ethyl)urea]	13 µM	
COc1ncc(C(C)N(C(=O)Nc2ccc(F)c(Cl)c2)C2CC2)c2ccccc12 (single isomer, unassigned) [Compound 57, 3-(3-Chloro-4-fluorophenyl)-1-cyclopropyl-1-(1-(1-methoxyisoquinolin-4-yl)ethyl)urea]	0.24 µM	
CCN(C(=O)Nc1ccc(F)c(Cl)c1)C(c1cnc(OC)c2ccccc12)C1CC1 (single isomer, unassigned) [Compound 58, 3-(3-Chloro-4-fluorophenyl)-1-(cyclopropyl(1-methoxyisoquinolin-4-yl)methyl)-1-ethylurea]	3.5 µM	
CCN(C(=O)Nc1ccc(F)c(Cl)c1)C(c1ccccc1)c1cnc(OC)c2ccccc12 (single isomer, unassigned) [Compound 59, 3-(3-Chloro-4-fluorophenyl)-1-ethyl-1-((1-methoxyisoquinolin-4-yl)(phenyl)methyl)urea]	22 µM	
CCN(C(=O)Nc1ccc(F)c(Cl)c1)C(c1ccccc1)c1cnc(OC)c2ccccc12 (single isomer, unassigned) [Compound 60, 3-(3-Chloro-4-fluorophenyl)-1-ethyl-1-((1-methoxyisoquinolin-4-yl)(phenyl)methyl)urea]	8.8 µM	
CCCCN(C(=O)Nc1ccc(F)c(Cl)c1)C(C)c1cnc(OC)c2ccccc12 (single isomer, unassigned) [Compound 61, 1-Butyl-3-(3-chloro-4-fluorophenyl)-1-(1-(1-methoxyisoquinolin-4-yl)ethyl)urea]	0.08 µM	
